# Entries after “also recorded” stand apart in the source; their conditions may differ.
# Key:
# HCT116 spheroid cells = test: Immunostaining of p-ERKs and paxillin in spheroids in three-dimensional collagen gel (confocal microscope); type: cell-based, human; settings: U0126 (50 mM) or YH16899 (50 mM), a day
# Protocol: Particularly, collagen type I was distributed in PDMS, which was treated with nothing for a day (FIG. 6A and FIG. 6B) or treated with U0126 (50 mM) or YH16899 (50 mM) (FIG. 6C and FIG. 6D). Collagen gel containing the cultured cells was fixed in 4% formaldehyde for 30 minutes, followed by the treatment with 30 mM glycine for 30 minutes. Permeabilization was induced by using 0.5% triton X-100 for 30 minutes, followed by blocking with 3% BSA solution for 2 hours. The unlabeled p-ERKs (cell signaling) and paxillin (BD bioscience) antibodies were treated thereto at 4° C. at least 16˜18 hours, followed by the treatment with the secondary antibody for at least 4 hours at room temperature. At last, DAPI (4′,6-diamidino-2-phenylindole) solution was treated thereto in order to stain nuclei. The stained cells were observed under confocal microscope.
# HCT116 parental cells [1] = settings: U0126 50 or 100 μM, 24 hours; vs control not treated
# Protocol: Particularly, the HCT116 parental cells cultured in a three-dimensional collagen gel environment were either not treated with U0126 or treated with U0126, the ERKs inhibitor, at the concentration of 50 or 100 μM, followed by culture for 24 hours.
# HCT116 cells = test: CK14 immunostaining of spheroids in three-dimensional collagen gel; type: cell-based, human; settings: U0126 (50 mM) or YH16899 (50 mM), a day, KRS expressing cells
# Description: In a three-dimensional collagen gel environment, the dissemination of cells was KRS expression-dependent, and the expressions of epithelial markers involved in cell-cell contact were reduced in the KRS knock-out cell lines. However in the KRS knock-out cell lines, the cell scattering was not observed in a two-dimensional culture environment and the dissemination was not observed in a three-dimensional collagen gel environment. So, in order to confirm whether or not the dissemination of cells from the spheroidically aggregated cells of KRS knock-out cell line in a three-dimensional collagen gel environment was attributed to the expression of epithelial marker, the cell line was cultured in a three-dimensional collagen gel environment for 24 hours. When the dissemination was observed, CK14 staining was performed and the cells were observed under confocal microscope.
# Particularly, the collagen gel containing cells were distributed in PDMS, which was treated with nothing for a day (FIG. 9A) or treated with U0126 (50 mM) or YH16899 (50 mM) (FIG. 9B). The collagen gel containing the cultured cells was fixed in 4% paraformaldehyde for 30 minutes, which was then treated with 30 mM glycine for 30 minutes. Then, permeabilization was induced by using 0.5% triton X-100 for 30 minutes, followed by blocking with 3% BSA solution for 2 hours. […]
# [2] = system: HCT116 spheroidically aggregated cells; test: Dissemination of cells from spheroidically aggregated cells in three-dimensional collagen gel (time-lapse microscope); type: cell-based, human; settings: HCT116 parental cells, U0126 50 μM, three-dimensional collagen gel, real-time live imaging
# Protocol: Particularly, 2.5 mg/Ml of collagen containing cells was loaded in the magnetic 4-well chamber (Live Cell Instrument, Korea) for the culture system of time-lapse microscope, and the collagen was hardened in a 37° C. incubator for 30 minutes. When the collagen was fully solidified, PRMI-1640 supplemented with 10% FBS was added thereto. The magnetic chamber containing three-dimensional collagen gel and its corresponding adaptor were placed on the time-lapse microscope, followed by setting the multi-position. […] 5% CO2 incubator. Culture medium was added thereto every 6 hours in order for the collagen not to be dried. At this time, it is important to maintain the focus not to be changed. […]
# As confirmed in the result of Example 14, when the HCT116 parental cells were treated with TGFβ1, the dissemination of cells from the spheroidically aggregated cells and migration thereof were observed. When the KRS knock-out cell line was treated with TGFβ1, the dissemination of cells was not observed. […] When the extracellular signal-regulated kinase (ERKs) inhibitor U0126 was treated to the HCT116 parental cells, it was presumed to be negative effect on the dissemination and migration of cells. To verify above, 50 μM of U0126, the ERKs inhibitor, was treated to the cell line, followed by observation of cell dissemination and migration by real-time live imaging of the spheroidically aggregated cells.
# HCT116 parental cells [3] = test: Western blotting of signaling factors in spheroidically aggregated cells in three-dimensional collagen gel; type: cell-based, human; settings: for phosphorylation of FAK / expression of E-cadherin / expression of paxillin / expression of β-catenin / phosphorylation of ERKs / phosphorylation of paxillin: 50 and 100 μM, three-dimensional collagen gel, Western blotting; for phosphorylation of FAK: a day (24 hours); for expression of E-cadherin / expression of paxillin / expression of β-catenin / phosphorylation of ERKs / phosphorylation of paxillin: a day
# Protocol: Whole cell extract was collected, followed by Western blotting by the same manner as described in Example <7-2>. At this time, the primary antibodies of pY397FAK, FAK, p-ERKs, ERKs, pY118paxillin, paxillin, E-cadherin, β-catenin, KRS, α-tubulin, pAkt1/2/3, and caspase 3 were used.
# SDS, Na3O4V, and protease inhibitor cocktails (GenDepot) were added to lysis buffer, followed by reaction at 4° C. for at least 1 hour. Centrifugation was performed at 4° C., at 13000 rpm, for 30 minutes. The supernatant was transferred into a new microcentrifuge tube. 4×SDS-PAGE sample buffer was added thereto, followed by boiling at 100° C. for 5 minutes. The extract was quantified by Western blotting using α-tubulin antibody (Sigma). Other protein expressions and phosphorylations were also measured by Western blotting.
# [4] = system: colorectal cancer cell line SW620; test: Dissemination of cells from SW620 spheroids in three-dimensional collagen gel (time-lapse imaging); type: cell-based, human; settings: SW620 parental cells treated with U0126 or YH16899
# Description: Various colorectal cancer cell lines (SW620, HCT15, SNU977, KM12SM, and SNU-05) were stably transfected with shKRS to suppress KRS expression (clones #2 and #5). Then, the dissemination was observed under time-lapse microscope (FIG. 17A) or the signaling activity was investigated after the treatment of YH16899 (FIG. 17B).
# Particularly, the colorectal cancer cell lines SW620, HCT15, SNU977, KM12SM, and SNU-05 (Korean Cell Line Bank, Cancer Research Institute, Seoul National University) were distributed in a three-dimensional collagen gel environment as spheroids, followed by time-lapse imaging 6 hours later or followed by normal culture in a two-dimensional environment supplemented with 10% serum for 2 days. Then, lysis buffer (50 mM Tris-HCl, pH7.4, 1% NP-40, 0.25% sodium deoxycholate, 150 mM NaCl, 1 mM EDTA) was added thereto, followed by lysis to obtain cell lysate. The protein in the obtained cell lysate was quantified, followed by Western blotting with the labeled factors.
compound,measurement,setting,value
N#CC(=C(/N)Sc1ccccc1N)/C(C#N)=C(\N)Sc1ccccc1N [U0126],ERKs phosphorylation level (p-ERKs immunostaining),HCT116 spheroid cells,inhibited significantly; also recorded: very low
same,paxillin immunostaining level (paxillin expression),HCT116 spheroid cells,inhibited significantly; also recorded: significantly reduced
same,expression level of E-cadherin mRNA,HCT116 parental cells [1],significantly reduced
same,CK14 expression,HCT116 cells,significantly suppressed
same,CK14 expression,HCT116 cells; listed as U1026,low and very low
same,dissemination and migration of cells from the spheroid,[2],suppression
same,dissemination and migration of cells from the spheroid,[2]; listed as ERKs inhibitor,did not cause cell migration and dissemination; also recorded: not induced
same,dissemination and migration of cells from the spheroid,[2]; listed as ERKs inhibitors,inhibited
same,dissemination and migration of cells from the spheroid,[2]; listed as U1026,inhibited
same,phosphorylation of FAK,HCT116 parental cells [3],suppressed
same,phosphorylation of FAK,HCT116 parental cells [3]; listed as ERKs inhibitor,significantly reduced
same,expression of E-cadherin,HCT116 parental cells [3],reduced
same,expression of paxillin,HCT116 parental cells [3],reduced
same,expression of β-catenin,HCT116 parental cells [3],reduced
same,phosphorylation of ERKs,HCT116 parental cells [3],suppressed
same,phosphorylation of paxillin,HCT116 parental cells [3],reduced; also recorded: suppressed
same,expression of E-cadherin,HCT116 parental cells [3]; listed as ERKs inhibitor,significantly reduced
same,expression of paxillin,HCT116 parental cells [3]; listed as ERKs inhibitor,significantly reduced
same,phosphorylation of paxillin,HCT116 parental cells [3]; listed as ERKs inhibitor,significantly reduced
same,expression of E-cadherin,HCT116 parental cells [3]; listed as U1026,decreased
same,expression of paxillin,HCT116 parental cells [3]; listed as U1026,inhibited
same,expression of β-catenin,HCT116 parental cells [3]; listed as U1026,decreased
same,phosphorylation of ERKs,HCT116 parental cells [3]; listed as U1026,inhibited
same,phosphorylation of paxillin,HCT116 parental cells [3]; listed as U1026,inhibited
same,expression of the epithelial marker,"HCT116 parental cells [3]; HCT116 cell line in three-dimensional collagen gel, FIG. 18 legend",increased
same,dissemination of cells from the three-dimensional spheroid cells,[4],not observed

# — US20160146815A1, “METHOD FOR SCREEING CANCER METASTASIS INHIBITOR USING CULTURE OF CELLS OR SPHEROIDICALLY AGGREGATED CELLS IN WHICH LYSYL-TRNA SYNTHETASE IS REGULATED TO BE EXPRESSED OR UNEXPRESSED” (Medicinal Bioconvergence Research Center, priority 2013, published 2016)
